Assay results reported in PMC6199309, “A therapeutic approach to pantothenate kinase associated neurodegeneration” (Nature Communications, 2018).

Tests used:
[1] = biological target: T1, ABL1(F317I)-nonphosphorylated (Homo sapiens, UniProt P00519, F317I); experiment: KINOMEscan; format: binding; conditions: read-out: %Ctrl @ 10000nM
T1 construct: purchased DiscoverX KINOMEscan

[2] = biological target: T2, ABL1(F317L)-nonphosphorylated (Homo sapiens, UniProt P00519, F317L); experiment: KINOMEscan; format: binding; conditions: read-out: %Ctrl @ 10000nM
T2 construct: purchased DiscoverX KINOMEscan

CAMKK1 = biological target: T3, CAMKK1 (Homo sapiens, UniProt Q8N5S9); experiment: KINOMEscan; format: binding; conditions: read-out: %Ctrl @ 10000nM
T3 construct: purchased DiscoverX KINOMEscan

CHEK2 = biological target: T4, CHEK2 (Homo sapiens, UniProt O96017); experiment: KINOMEscan; format: binding; conditions: read-out: %Ctrl @ 10000nM
T4 construct: purchased DiscoverX KINOMEscan

CSNK2A2 = biological target: T5, CSNK2A2 (Homo sapiens, UniProt P19784); experiment: KINOMEscan; format: binding; conditions: read-out: %Ctrl @ 10000nM
T5 construct: purchased DiscoverX KINOMEscan

DLK = biological target: T6, DLK (Homo sapiens, UniProt Q12852); experiment: KINOMEscan; format: binding; conditions: read-out: %Ctrl @ 10000nM
T6 construct: purchased DiscoverX KINOMEscan

DRAK1 = biological target: T7, DRAK1 (Homo sapiens, UniProt Q9UEE5); experiment: KINOMEscan; format: binding; conditions: read-out: %Ctrl @ 10000nM
T7 construct: purchased DiscoverX KINOMEscan

EGFR(L858R) = biological target: T8, EGFR(L858R) (Homo sapiens, UniProt P00533, L858R); experiment: KINOMEscan; format: binding; conditions: read-out: %Ctrl @ 10000nM
T8 construct: purchased DiscoverX KINOMEscan

EIF2AK1 = biological target: T9, EIF2AK1 (Homo sapiens, UniProt Q9BQI3); experiment: KINOMEscan; format: binding; conditions: read-out: %Ctrl @ 10000nM
T9 construct: purchased DiscoverX KINOMEscan

EPHA6 = biological target: T10, EPHA6 (Homo sapiens, UniProt Q9UF33); experiment: KINOMEscan; format: binding; conditions: read-out: %Ctrl @ 10000nM
T10 construct: purchased DiscoverX KINOMEscan

EPHB6 = biological target: T11, EPHB6 (Homo sapiens, UniProt O15197); experiment: KINOMEscan; format: binding; conditions: read-out: %Ctrl @ 10000nM
T11 construct: purchased DiscoverX KINOMEscan

ERBB4 = biological target: T12, ERBB4 (Homo sapiens, UniProt Q15303); experiment: KINOMEscan; format: binding; conditions: read-out: %Ctrl @ 10000nM
T12 construct: purchased DiscoverX KINOMEscan

ERN1 = biological target: T13, ERN1 (Homo sapiens, UniProt O75460); experiment: KINOMEscan; format: binding; conditions: read-out: %Ctrl @ 10000nM
T13 construct: purchased DiscoverX KINOMEscan

GRK3 = biological target: T14, GRK3 (Homo sapiens, UniProt P35626); experiment: KINOMEscan; format: binding; conditions: read-out: %Ctrl @ 10000nM
T14 construct: DNA tag for qPCR (T7 phage fusion or DNA label); purchased DiscoverX KdELECT; host or cells: E. coli BL21-derived (T7 phage) or HEK-293

GSK3B = biological target: T15, GSK3B (Homo sapiens, UniProt P49841); experiment: KINOMEscan; format: binding; conditions: read-out: %Ctrl @ 10000nM
T15 construct: purchased DiscoverX KINOMEscan

HIPK3 = biological target: T16, HIPK3 (Homo sapiens, UniProt Q9H422); experiment: KINOMEscan; format: binding; conditions: read-out: %Ctrl @ 10000nM
T16 construct: purchased DiscoverX KINOMEscan

INSRR = biological target: T17, INSRR (Homo sapiens, UniProt P14616); experiment: KINOMEscan; format: binding; conditions: read-out: %Ctrl @ 10000nM
T17 construct: purchased DiscoverX KINOMEscan

IRAK4 = biological target: T18, IRAK4 (Homo sapiens, UniProt Q9NWZ3); experiment: KINOMEscan; format: binding; conditions: read-out: %Ctrl @ 10000nM
T18 construct: purchased DiscoverX KINOMEscan

MST1R = biological target: T19, MST1R (Homo sapiens, UniProt Q04912); experiment: KINOMEscan; format: binding; conditions: read-out: %Ctrl @ 10000nM
T19 construct: purchased DiscoverX KINOMEscan

MYO3B = biological target: T20, MYO3B (Homo sapiens, UniProt Q8WXR4); experiment: KINOMEscan; format: binding; conditions: read-out: %Ctrl @ 10000nM
T20 construct: purchased DiscoverX KINOMEscan

PDGFRA = biological target: T21, PDGFRA (Homo sapiens, UniProt P16234); experiment: KINOMEscan; format: binding; conditions: read-out: %Ctrl @ 10000nM
T21 construct: purchased DiscoverX KINOMEscan

PFCDPK1(P.falciparum) = biological target: T22, PFCDPK1(P.falciparum) (Plasmodium falciparum, UniProt P62344); experiment: KINOMEscan; format: binding; conditions: read-out: %Ctrl @ 10000nM
T22 construct: purchased DiscoverX KINOMEscan

PIM3 = biological target: T23, PIM3 (Homo sapiens, UniProt Q86V86); experiment: KINOMEscan; format: binding; conditions: read-out: %Ctrl @ 10000nM
T23 construct: purchased DiscoverX KINOMEscan

PRKG2 = biological target: T24, PRKG2 (Homo sapiens, UniProt Q13237); experiment: KINOMEscan; format: binding; conditions: read-out: %Ctrl @ 10000nM
T24 construct: purchased DiscoverX KINOMEscan

RIPK2 = biological target: T25, RIPK2 (Homo sapiens, UniProt O43353); experiment: KINOMEscan; format: binding; conditions: read-out: %Ctrl @ 10000nM
T25 construct: purchased DiscoverX KINOMEscan

[3] = biological target: T26, RPS6KA5(Kin.Dom.1-N-terminal) (Homo sapiens, UniProt O75582); experiment: KINOMEscan; format: binding; conditions: read-out: %Ctrl @ 10000nM
T26 construct: RPS6KA5(Kin.Dom.1-N-terminal); purchased DiscoverX KINOMEscan

[4] = biological target: T27, RSK1(Kin.Dom.1-N-terminal) (Homo sapiens, UniProt Q15418); experiment: KINOMEscan; format: binding; conditions: read-out: %Ctrl @ 10000nM
T27 construct: RSK1(Kin.Dom.1-N-terminal); purchased DiscoverX KINOMEscan

[5] = biological target: T28, RSK3(Kin.Dom.2-C-terminal) (Homo sapiens, UniProt Q15349); experiment: KINOMEscan; format: binding; conditions: read-out: %Ctrl @ 10000nM
T28 construct: RSK3(Kin.Dom.2-C-terminal); purchased DiscoverX KINOMEscan

[6] = biological target: T29, RSK4(Kin.Dom.2-C-terminal) (Homo sapiens, UniProt Q9UK32); experiment: KINOMEscan; format: binding; conditions: read-out: %Ctrl @ 10000nM
T29 construct: RSK4(Kin.Dom.2-C-terminal); purchased DiscoverX KINOMEscan

STK16 = biological target: T30, STK16 (Homo sapiens, UniProt O75716); experiment: KINOMEscan; format: binding; conditions: read-out: %Ctrl @ 10000nM
T30 construct: purchased DiscoverX KINOMEscan

TGFBR1 = biological target: T31, TGFBR1 (Homo sapiens, UniProt P36897); experiment: KINOMEscan; format: binding; conditions: read-out: %Ctrl @ 10000nM
T31 construct: purchased DiscoverX KINOMEscan

TGFBR2 = biological target: T32, TGFBR2 (Homo sapiens, UniProt P37173); experiment: KINOMEscan; format: binding; conditions: read-out: %Ctrl @ 10000nM
T32 construct: purchased DiscoverX KINOMEscan

TIE1 = biological target: T33, TIE1 (Homo sapiens, UniProt P35590); experiment: KINOMEscan; format: binding; conditions: read-out: %Ctrl @ 10000nM
T33 construct: purchased DiscoverX KINOMEscan

TXK = biological target: T34, TXK (Homo sapiens, UniProt P42681); experiment: KINOMEscan; format: binding; conditions: read-out: %Ctrl @ 10000nM
T34 construct: DNA label for qPCR (T7 phage fusion or DNA tag); purchased DiscoverX scanMAX; host or cells: E. coli BL21-derived (T7 phage) or HEK-293

[7] = biological target: T35, TYK2(JH1domain-catalytic) (Homo sapiens, UniProt P29597); experiment: KINOMEscan; format: binding; conditions: read-out: %Ctrl @ 10000nM
T35 construct: TYK2(JH1domain-catalytic); DNA label for qPCR (T7 phage fusion or DNA tag); purchased DiscoverX scanMAX; host or cells: E. coli BL21-derived (T7 phage) or HEK-293

Plasma stability = format: in vitro ADME; conditions: rat, read-out: Plasma Stability T1/2 (converted)
HEK293T cells = experiment: Intracellular CoA levels in transfected HEK293T cells; format: cell-based, human; conditions: 10 μM, 24 h
Method: Chloroform 1.5 ml, 1.2 ml water and 30 pmol of [^13C2]acetyl-CoA (Sigma) was added, and centrifuged at 2000×g for 10 min. The top layer was loaded on a 2-(2-pyridyl) ethyl solid phase extraction column which was equilibrated with 1 ml 50% methanol/2% acetic acid. The column was washed twice with 1 ml 50% methanol/2% acetic acid and 1 ml water. […] Samples were resuspended in 90% methanol containing 15 mM ammonium hydroxide.

Protein binding = conditions: human

T28 sequence (Q15349 389-733 limits assumed): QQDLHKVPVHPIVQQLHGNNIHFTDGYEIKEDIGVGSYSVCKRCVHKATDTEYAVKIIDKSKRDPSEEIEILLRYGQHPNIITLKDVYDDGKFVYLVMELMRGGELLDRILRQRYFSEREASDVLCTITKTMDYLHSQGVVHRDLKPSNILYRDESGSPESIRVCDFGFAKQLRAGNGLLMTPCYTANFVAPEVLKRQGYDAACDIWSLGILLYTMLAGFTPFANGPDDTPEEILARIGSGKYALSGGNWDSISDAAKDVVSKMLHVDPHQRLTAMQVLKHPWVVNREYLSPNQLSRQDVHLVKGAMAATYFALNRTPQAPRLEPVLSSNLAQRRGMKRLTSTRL
T18 sequence (Q9NWZ3 whole entry): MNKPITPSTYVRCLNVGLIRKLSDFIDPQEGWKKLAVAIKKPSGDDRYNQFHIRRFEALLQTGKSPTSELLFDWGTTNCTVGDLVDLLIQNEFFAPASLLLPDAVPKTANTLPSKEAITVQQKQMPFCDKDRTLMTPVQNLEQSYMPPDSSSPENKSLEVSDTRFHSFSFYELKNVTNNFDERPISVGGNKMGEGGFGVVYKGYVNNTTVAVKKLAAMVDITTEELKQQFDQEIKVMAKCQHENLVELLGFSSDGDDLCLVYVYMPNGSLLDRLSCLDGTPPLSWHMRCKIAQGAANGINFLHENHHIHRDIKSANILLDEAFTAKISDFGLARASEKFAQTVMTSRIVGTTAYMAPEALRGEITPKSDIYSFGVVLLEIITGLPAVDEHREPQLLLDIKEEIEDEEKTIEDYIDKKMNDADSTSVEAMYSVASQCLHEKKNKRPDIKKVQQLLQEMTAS
T34 sequence (P42681 whole entry, the tested form may be a part): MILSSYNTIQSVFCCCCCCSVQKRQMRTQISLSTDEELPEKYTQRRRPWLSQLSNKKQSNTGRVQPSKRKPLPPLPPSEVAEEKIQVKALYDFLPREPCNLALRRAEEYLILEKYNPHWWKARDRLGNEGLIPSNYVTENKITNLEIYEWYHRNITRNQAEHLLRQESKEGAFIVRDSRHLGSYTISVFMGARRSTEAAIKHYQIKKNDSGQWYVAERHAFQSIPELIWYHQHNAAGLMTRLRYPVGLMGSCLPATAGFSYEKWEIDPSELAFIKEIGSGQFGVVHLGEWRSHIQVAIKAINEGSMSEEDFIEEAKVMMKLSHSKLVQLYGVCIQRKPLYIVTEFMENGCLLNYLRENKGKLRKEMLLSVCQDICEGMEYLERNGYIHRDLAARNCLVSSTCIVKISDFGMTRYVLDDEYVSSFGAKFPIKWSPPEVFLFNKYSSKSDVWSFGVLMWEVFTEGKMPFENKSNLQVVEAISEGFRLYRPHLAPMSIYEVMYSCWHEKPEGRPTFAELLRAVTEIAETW
T16 sequence (Q9H422 whole entry): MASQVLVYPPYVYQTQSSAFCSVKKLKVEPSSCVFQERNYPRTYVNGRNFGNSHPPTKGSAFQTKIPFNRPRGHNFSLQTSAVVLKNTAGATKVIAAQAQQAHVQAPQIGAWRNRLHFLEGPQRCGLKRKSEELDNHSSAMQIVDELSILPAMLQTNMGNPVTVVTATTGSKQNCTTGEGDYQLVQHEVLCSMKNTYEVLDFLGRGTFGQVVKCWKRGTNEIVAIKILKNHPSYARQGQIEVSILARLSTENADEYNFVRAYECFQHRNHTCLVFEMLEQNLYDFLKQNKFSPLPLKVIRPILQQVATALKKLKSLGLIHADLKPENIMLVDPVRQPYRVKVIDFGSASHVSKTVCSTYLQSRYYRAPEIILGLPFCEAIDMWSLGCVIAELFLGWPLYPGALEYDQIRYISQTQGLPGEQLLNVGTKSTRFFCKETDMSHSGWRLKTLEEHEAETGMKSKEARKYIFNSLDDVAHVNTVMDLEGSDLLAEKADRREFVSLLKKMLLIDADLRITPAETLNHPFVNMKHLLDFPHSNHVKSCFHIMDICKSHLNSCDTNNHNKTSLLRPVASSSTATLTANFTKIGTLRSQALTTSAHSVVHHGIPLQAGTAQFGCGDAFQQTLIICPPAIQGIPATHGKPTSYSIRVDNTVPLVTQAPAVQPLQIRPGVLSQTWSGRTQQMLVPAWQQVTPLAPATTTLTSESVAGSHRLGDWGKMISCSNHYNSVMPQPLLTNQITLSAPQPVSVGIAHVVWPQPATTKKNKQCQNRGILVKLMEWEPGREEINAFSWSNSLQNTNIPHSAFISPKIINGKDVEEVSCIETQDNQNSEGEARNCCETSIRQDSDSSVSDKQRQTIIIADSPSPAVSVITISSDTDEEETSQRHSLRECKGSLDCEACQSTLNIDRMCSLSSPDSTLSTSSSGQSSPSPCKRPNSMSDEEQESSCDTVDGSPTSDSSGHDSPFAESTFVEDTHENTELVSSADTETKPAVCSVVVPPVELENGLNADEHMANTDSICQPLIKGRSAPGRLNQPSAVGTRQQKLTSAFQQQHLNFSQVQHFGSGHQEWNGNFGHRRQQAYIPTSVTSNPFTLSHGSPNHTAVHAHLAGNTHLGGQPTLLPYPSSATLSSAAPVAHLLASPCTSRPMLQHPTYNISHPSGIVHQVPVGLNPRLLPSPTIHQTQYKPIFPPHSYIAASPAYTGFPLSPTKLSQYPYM
T22 sequence (P62344 whole entry): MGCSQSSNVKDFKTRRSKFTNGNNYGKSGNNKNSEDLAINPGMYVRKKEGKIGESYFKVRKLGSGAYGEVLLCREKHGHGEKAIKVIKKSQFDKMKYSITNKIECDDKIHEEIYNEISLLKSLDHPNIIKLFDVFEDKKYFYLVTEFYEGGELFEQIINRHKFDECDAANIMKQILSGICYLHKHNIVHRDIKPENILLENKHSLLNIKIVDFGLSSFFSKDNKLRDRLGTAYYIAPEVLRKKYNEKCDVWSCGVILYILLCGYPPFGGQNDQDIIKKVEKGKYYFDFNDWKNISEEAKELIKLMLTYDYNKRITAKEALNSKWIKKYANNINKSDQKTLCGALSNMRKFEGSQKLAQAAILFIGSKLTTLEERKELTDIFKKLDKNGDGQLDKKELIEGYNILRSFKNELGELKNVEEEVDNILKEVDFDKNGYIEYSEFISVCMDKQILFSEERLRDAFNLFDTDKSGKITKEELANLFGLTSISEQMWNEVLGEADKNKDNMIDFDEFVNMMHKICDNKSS
T33 sequence (P35590 22-1138): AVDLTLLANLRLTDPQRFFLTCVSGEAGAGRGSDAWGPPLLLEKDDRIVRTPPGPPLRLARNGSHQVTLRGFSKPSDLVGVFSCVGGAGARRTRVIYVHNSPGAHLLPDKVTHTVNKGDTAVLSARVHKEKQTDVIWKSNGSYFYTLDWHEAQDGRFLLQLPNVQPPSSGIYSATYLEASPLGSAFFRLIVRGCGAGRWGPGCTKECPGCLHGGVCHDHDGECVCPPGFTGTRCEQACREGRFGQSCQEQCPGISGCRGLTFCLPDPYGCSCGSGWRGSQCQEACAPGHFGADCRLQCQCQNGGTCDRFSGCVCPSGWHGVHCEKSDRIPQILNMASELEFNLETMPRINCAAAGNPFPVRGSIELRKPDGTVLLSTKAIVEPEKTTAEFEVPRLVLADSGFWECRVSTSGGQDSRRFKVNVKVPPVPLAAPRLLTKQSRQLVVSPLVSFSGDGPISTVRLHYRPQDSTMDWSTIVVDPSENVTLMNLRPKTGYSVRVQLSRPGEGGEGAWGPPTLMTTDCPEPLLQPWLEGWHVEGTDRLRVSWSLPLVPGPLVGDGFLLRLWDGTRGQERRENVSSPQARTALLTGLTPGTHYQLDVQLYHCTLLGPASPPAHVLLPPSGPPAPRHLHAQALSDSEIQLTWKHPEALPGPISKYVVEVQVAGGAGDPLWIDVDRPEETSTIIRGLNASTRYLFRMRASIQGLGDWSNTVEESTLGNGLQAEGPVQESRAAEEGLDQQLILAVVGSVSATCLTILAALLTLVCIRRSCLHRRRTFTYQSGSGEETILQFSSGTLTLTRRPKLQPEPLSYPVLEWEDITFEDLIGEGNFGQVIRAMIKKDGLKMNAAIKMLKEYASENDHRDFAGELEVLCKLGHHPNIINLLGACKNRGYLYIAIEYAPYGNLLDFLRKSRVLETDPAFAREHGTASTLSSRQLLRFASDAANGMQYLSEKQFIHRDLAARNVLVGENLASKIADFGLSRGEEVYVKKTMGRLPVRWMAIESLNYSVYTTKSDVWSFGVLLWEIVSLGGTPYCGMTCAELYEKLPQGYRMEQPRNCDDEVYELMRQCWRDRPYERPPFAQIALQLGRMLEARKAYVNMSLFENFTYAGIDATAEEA
T30 sequence (O75716 whole entry): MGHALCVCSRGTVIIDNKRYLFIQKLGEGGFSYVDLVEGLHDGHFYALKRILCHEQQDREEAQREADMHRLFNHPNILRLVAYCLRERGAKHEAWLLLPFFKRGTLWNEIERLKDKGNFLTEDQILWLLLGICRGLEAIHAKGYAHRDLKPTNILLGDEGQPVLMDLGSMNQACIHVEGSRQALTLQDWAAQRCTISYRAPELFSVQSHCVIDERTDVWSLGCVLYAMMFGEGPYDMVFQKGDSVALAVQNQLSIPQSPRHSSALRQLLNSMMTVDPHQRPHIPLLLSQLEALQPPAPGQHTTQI
T7 sequence (Q9UEE5 whole entry): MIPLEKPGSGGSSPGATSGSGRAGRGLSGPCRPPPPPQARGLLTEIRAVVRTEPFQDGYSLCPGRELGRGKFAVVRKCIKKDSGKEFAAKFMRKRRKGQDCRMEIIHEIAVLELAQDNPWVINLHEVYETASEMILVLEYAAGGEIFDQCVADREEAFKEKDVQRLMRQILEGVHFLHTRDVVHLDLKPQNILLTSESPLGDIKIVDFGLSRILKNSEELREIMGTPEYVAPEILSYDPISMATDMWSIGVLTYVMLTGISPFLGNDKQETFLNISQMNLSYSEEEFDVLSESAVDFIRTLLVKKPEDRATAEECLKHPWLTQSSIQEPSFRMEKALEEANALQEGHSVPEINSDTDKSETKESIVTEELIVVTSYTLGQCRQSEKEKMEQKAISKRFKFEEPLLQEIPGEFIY

Compound `CC(C)c1ccc(CC(=O)N2CCN(c3ccc(C#N)nn3)CC2)cc1` [PZ-2891, 6-(4-(2-(4-isopropylphenyl)acetyl)piperazin-1-yl)pyridazine-3-carbonitrile] has a remaining binding at 10 µM [1] of 77%, a remaining binding at 10 µM [2] of 73% and a remaining binding at 10 µM (CAMKK1) of 89%. The remaining binding at 10 µM (CHEK2) was 79%, the remaining binding at 10 µM (CSNK2A2) was 88% and the remaining binding at 10 µM (DLK) was 100%. For the same compound, the remaining binding at 10 µM (DRAK1) was 99%, the remaining binding at 10 µM (EGFR(L858R)) was 84% and the remaining binding at 10 µM (EIF2AK1) was 95%. The remaining binding at 10 µM (EPHA6) was 89%, the remaining binding at 10 µM (EPHB6) was 68% and the remaining binding at 10 µM (ERBB4) was 100%. For the same compound, the remaining binding at 10 µM (ERN1) was 82%, the remaining binding at 10 µM (GRK3) was 35% and the remaining binding at 10 µM (GSK3B) was 74%. The remaining binding at 10 µM (HIPK3) was 81%, the remaining binding at 10 µM (INSRR) was 82% and the remaining binding at 10 µM (IRAK4) was 93%. The remaining binding at 10 µM (MST1R) was 73%, the remaining binding at 10 µM (MYO3B) was 88% and the remaining binding at 10 µM (PDGFRA) was 70%. It also gave a remaining binding at 10 µM (PFCDPK1(P.falciparum)) of 97%, a remaining binding at 10 µM (PIM3) of 58% and a remaining binding at 10 µM (PRKG2) of 76%. It also gave a remaining binding at 10 µM (RIPK2) of 89%, a remaining binding at 10 µM [3] of 93% and a remaining binding at 10 µM [4] of 100%. It also gave a remaining binding at 10 µM [5] of 66%, a remaining binding at 10 µM [6] of 71% and a remaining binding at 10 µM (STK16) of 98%. It also gave a remaining binding at 10 µM (TGFBR1) of 99%, a remaining binding at 10 µM (TGFBR2) of 98% and a remaining binding at 10 µM (TIE1) of 85%. For the same compound, the remaining binding at 10 µM (TXK) was 92%, the remaining binding at 10 µM [7] was 67% and the half-life (Plasma stability) was greater than 50 h. For the same compound, the “intracellular CoA, control (empty vector) HEK293T cells” value (HEK293T cells) was “significantly increased the levels of intracellular CoA” and the fraction unbound (Protein binding) was 0.07.
